Reference: ChEMBL document CHEMBL1201862, “PubChem BioAssay data set” (2004)
The source made the active and inactive calls.

Assays:
Beta-lactamase [1] = molecular target: T1, Beta-lactamase (Pseudomonas aeruginosa, UniProt Q79MP6); assay: […] counterscreen for selective VIM-2 inhibitors: dose response biochemical high throughput screening assay to identify inhibitors of IMP-1 metallo-beta-lactamase.
Beta-lactamase [2] = molecular target: T1, Beta-lactamase; assay: inhibition of IMP-1 beta-lactamase activity – biochemical, epi-absorbance, selectivity assay for VIM-2 inhibitor project, dose response (AID 1920)
Beta-lactamase [3] = molecular target: Beta-lactamase (Salmonella choleraesuis (strain SC-B67), UniProt Q5J463); assay: Epi-absorbance-based counterscreen for selective VIM-2 inhibitors: dose response biochemical high throughput screening assay to identify inhibitors of TEM-1 serine-beta-lactamase.
Streptococcus = assay: GAS UMAA2166 growth inhibition – luminescence, BacTiterGlo, counter-screen for streptokinase expression inhibitor project, dose response (AID 1915); assay type: functional, organism-based;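 note: potency for reduction of bacterial viability or growth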
[4] = molecular target: T2, Small ubiquitin-related modifier 1 (Homo sapiens, UniProt P63165); assay: SUMO1 protein interaction blockers, potency – biochemical, fluorescence polarization, uHTS hits, dose response (AID 624382); assay type: functional; details: read-out: IC50_Mean
[5] = system: Streptococcus sp. 'group A'; assay: Streptococcus pyogenes SK(-)GAS viability under kanamycin – luminescence, BacTiterGlo, confirmation, counter-screen for streptokinase expression inhibitor project, dose response (AID 1900); assay type: functional, organism-based
[6] = molecular target: T2, Small ubiquitin-related modifier 1; assay: SUMO1 protein-protein binding blockers, potency – biochemical, FRET, dose response (AID 624383); assay type: functional; details: read-out: IC50_Mean
Streptokinase A = molecular target: T3, Streptokinase A (Streptococcus pyogenes serotype M1, UniProt P10520); assay: viability-normalized secreted streptokinase activity reduction – plasminogen activation absorbance, OD405, dose response (AID 1914); assay type: functional, Streptococcus pyogenes M1 GAS;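 note: secreted streptokinase activity via plasminogen activation per viability signal from cell pellet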
T3 sequence (P10520 whole entry): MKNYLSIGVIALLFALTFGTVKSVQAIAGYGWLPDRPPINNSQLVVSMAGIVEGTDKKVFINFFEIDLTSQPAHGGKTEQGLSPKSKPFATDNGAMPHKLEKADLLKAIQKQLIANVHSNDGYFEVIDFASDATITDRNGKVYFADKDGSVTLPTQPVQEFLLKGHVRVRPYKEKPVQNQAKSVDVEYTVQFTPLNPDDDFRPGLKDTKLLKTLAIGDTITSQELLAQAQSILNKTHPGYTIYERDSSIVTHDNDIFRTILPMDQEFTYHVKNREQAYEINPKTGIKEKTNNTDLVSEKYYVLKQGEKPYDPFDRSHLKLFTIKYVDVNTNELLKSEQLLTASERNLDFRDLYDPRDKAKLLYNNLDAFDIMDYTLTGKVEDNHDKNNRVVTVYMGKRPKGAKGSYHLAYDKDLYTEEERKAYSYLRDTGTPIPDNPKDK

[7] = molecular target: T4, Ubiquitin-conjugating enzyme E2 N (Homo sapiens, UniProt P61088); assay type: functional;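 note: Dose-response confirmation in a TR-FRET assay detecting UBC13-driven polyubiquitin chain formation, inhibition measured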
T4 sequence (P61088 whole entry): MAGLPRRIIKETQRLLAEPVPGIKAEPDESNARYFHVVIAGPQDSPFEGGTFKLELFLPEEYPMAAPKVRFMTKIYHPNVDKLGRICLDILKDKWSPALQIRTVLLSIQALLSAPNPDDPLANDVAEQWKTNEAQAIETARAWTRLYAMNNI

[8] = viability loss in HeLa cells – cytotoxicity control for MgcRacGAP inhibitor project, dose response (AID 624300); assay type: functional
[9] = molecular target: T5, Rac GTPase-activating protein 1 (Homo sapiens, UniProt Q9H0H5); assay: blockers of MgcRacGAP-driven Rac1 GTP hydrolysis – biochemical, ADP Hunter fluorescence, primary and confirmatory, confirmation (AID 624330); assay type: functional
T5 sequence (Q9H0H5 whole entry): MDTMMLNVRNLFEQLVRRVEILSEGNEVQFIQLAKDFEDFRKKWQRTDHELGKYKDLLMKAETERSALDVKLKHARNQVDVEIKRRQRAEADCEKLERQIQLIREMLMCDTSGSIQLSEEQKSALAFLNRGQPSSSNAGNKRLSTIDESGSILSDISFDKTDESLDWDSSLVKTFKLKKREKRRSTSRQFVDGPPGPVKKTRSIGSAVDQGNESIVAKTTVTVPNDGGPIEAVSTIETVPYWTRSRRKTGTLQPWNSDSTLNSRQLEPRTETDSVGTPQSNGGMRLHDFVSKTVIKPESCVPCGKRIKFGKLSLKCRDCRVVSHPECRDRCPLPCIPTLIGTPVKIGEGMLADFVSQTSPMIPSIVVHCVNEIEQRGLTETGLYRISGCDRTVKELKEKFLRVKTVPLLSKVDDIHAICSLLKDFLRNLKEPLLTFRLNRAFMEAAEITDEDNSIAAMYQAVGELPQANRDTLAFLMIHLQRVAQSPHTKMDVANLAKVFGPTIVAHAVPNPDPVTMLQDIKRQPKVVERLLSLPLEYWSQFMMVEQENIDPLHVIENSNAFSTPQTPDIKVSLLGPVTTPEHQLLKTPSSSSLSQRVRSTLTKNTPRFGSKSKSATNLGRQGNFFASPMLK

[10] = NIH3T3 cell viability loss – ATP luminescence, mouse fibroblasts, counter-screen, dose response (AID 2010); assay type: functional, cell-based;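 note: cells exposed to compound for about 90 hours before reading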
[11] = Trypanosoma cruzi growth suppression in host cells – NIH3T3 host cells, beta-gal luminescence, confirmation (AID 2044); assay type: functional, cell-based;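 note: intracellular parasites grown in NIH/3T3 mouse fibroblasts as host cells; luminescent beta-galactosidase reporter signal from transgenic T. cruzi replicating inside host cells; inhibitors lower the luminescence signal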
[12] = microbe, parasite or virus in culture; assay type: functional; details: Mycobacterium tuberculosis
[13] = molecular target: T6, Low molecular weight phosphotyrosine protein phosphatase (Homo sapiens, UniProt P24666); assay type: functional; details: read-out: IC50_Mean
T6 sequence (P24666 whole entry): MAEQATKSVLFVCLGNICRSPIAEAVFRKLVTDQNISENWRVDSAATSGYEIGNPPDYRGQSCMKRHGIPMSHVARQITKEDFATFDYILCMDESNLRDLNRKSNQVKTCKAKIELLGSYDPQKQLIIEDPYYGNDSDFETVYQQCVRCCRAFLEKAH

[14] = molecular target: T6, Low molecular weight phosphotyrosine protein phosphatase; assay type: functional; details: read-out: IC50_Mean; remark: listed apart in the source
Large T antigen = Large T antigen (Simian virus 40, UniProt P03070); assay type: functional, Betapolyomavirus macacae;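 note: Confirmatory-stage PubChem screen for compounds that inhibit SV40 T antigen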
[15] = molecular target: T7, Histone-lysine N-methyltransferase NSD2 (Homo sapiens, UniProt O96028); assay type: biochemical
T7 sequence (O96028 whole entry): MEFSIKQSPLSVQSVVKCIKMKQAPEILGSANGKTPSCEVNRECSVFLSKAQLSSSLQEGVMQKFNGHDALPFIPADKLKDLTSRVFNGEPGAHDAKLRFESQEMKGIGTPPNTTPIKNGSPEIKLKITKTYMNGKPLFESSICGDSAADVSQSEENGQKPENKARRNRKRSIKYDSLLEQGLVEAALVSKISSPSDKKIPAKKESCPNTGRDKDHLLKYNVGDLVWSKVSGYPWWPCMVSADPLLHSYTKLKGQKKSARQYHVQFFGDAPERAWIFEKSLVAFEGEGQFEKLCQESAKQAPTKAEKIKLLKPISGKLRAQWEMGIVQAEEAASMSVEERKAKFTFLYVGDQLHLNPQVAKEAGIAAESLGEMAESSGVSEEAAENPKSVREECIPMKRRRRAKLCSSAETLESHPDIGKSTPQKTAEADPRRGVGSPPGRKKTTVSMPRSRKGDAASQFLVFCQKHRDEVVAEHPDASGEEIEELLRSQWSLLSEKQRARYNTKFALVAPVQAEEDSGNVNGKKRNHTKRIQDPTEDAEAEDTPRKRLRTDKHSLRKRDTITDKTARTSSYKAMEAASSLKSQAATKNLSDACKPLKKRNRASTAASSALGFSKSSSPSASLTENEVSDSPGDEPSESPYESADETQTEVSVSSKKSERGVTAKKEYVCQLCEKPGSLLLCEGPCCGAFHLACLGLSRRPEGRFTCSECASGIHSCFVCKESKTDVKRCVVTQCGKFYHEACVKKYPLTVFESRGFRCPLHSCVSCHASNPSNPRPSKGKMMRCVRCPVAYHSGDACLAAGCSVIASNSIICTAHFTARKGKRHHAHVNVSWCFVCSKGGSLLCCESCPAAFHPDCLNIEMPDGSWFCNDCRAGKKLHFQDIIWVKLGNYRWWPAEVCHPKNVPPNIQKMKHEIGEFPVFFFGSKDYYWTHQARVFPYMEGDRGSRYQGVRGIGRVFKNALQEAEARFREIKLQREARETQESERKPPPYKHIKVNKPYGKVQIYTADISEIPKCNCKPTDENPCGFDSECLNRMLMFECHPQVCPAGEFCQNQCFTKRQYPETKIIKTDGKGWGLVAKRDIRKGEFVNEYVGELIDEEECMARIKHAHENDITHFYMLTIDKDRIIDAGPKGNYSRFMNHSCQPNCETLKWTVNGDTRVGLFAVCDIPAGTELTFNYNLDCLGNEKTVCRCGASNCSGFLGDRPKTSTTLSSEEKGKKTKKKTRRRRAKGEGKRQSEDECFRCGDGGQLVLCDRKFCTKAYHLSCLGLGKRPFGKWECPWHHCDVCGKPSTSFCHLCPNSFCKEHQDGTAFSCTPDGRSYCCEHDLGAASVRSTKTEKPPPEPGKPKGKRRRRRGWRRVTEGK

[16] = molecular target: DNA (cytosine-5)-methyltransferase 1 (Homo sapiens, UniProt P26358); assay: inhibition of DNA methylation by DNMT1 – biochemical, fluorescent molecular beacon, confirmation (AID 602386); assay type: functional
[17] = molecular target: Induced myeloid leukemia cell differentiation protein Mcl-1 (Homo sapiens, UniProt Q07820); assay type: functional
Fatty acid synthase [18] = molecular target: T8, Fatty acid synthase (Homo sapiens, UniProt P49327); assay: inhibition of human FAS-TE enzyme activity – biochemical, kinetic fluorescence intensity, dose response (AID 624326); assay type: functional;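 note: rate of fluorescence rise from hydrolysis of a fluorogenic O-methyl fluorescein ester substrate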
Fatty acid synthase [19] = molecular target: T8, Fatty acid synthase; assay: inhibition of human FAS-TE enzyme activity – biochemical, endpoint fluorescence intensity, uHTS hits, dose response (AID 624327); assay type: functional;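 note: fluorescence from hydrolysis of an O-methyl fluorescein acyl ester substrate by the enzyme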
[20] = molecular target: Photoreceptor-specific nuclear receptor (Homo sapiens, UniProt Q9Y5X4); assay type: functional, cell-based;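 note: CHO-S cells with Gal4-NCOR and VP16-NR2E3 two-hybrid luciferase reporter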
[21] = loss of viability in HepG2 cells – cell-based, CellTiter-Glo, cherry-picked, cytotoxicity control for Shn3 inhibitor project, dose response (AID 624134); assay type: functional
[22] = non-specific 3'UTR reporter inhibition in Clone20-Shn3RL – cell-based, Renilla luciferase, cherry-picked, counter-screen for Shn3 inhibitor project, dose response (AID 624133); assay type: functional
[23] = reduction of Shn3 3'UTR-driven luciferase in osteoblasts – cell-based, Clone20 osteoblasts, firefly luciferase, cherry-picked, dose response (AID 624132); assay type: functional;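 note: firefly luciferase luminescence from reporter carrying the Shn3 3'UTR in osteoblasts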

T2 sequence (P63165 whole entry): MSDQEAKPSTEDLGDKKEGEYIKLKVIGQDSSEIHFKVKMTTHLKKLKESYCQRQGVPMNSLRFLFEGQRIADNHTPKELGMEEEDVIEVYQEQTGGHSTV
T8 sequence (P49327 whole entry): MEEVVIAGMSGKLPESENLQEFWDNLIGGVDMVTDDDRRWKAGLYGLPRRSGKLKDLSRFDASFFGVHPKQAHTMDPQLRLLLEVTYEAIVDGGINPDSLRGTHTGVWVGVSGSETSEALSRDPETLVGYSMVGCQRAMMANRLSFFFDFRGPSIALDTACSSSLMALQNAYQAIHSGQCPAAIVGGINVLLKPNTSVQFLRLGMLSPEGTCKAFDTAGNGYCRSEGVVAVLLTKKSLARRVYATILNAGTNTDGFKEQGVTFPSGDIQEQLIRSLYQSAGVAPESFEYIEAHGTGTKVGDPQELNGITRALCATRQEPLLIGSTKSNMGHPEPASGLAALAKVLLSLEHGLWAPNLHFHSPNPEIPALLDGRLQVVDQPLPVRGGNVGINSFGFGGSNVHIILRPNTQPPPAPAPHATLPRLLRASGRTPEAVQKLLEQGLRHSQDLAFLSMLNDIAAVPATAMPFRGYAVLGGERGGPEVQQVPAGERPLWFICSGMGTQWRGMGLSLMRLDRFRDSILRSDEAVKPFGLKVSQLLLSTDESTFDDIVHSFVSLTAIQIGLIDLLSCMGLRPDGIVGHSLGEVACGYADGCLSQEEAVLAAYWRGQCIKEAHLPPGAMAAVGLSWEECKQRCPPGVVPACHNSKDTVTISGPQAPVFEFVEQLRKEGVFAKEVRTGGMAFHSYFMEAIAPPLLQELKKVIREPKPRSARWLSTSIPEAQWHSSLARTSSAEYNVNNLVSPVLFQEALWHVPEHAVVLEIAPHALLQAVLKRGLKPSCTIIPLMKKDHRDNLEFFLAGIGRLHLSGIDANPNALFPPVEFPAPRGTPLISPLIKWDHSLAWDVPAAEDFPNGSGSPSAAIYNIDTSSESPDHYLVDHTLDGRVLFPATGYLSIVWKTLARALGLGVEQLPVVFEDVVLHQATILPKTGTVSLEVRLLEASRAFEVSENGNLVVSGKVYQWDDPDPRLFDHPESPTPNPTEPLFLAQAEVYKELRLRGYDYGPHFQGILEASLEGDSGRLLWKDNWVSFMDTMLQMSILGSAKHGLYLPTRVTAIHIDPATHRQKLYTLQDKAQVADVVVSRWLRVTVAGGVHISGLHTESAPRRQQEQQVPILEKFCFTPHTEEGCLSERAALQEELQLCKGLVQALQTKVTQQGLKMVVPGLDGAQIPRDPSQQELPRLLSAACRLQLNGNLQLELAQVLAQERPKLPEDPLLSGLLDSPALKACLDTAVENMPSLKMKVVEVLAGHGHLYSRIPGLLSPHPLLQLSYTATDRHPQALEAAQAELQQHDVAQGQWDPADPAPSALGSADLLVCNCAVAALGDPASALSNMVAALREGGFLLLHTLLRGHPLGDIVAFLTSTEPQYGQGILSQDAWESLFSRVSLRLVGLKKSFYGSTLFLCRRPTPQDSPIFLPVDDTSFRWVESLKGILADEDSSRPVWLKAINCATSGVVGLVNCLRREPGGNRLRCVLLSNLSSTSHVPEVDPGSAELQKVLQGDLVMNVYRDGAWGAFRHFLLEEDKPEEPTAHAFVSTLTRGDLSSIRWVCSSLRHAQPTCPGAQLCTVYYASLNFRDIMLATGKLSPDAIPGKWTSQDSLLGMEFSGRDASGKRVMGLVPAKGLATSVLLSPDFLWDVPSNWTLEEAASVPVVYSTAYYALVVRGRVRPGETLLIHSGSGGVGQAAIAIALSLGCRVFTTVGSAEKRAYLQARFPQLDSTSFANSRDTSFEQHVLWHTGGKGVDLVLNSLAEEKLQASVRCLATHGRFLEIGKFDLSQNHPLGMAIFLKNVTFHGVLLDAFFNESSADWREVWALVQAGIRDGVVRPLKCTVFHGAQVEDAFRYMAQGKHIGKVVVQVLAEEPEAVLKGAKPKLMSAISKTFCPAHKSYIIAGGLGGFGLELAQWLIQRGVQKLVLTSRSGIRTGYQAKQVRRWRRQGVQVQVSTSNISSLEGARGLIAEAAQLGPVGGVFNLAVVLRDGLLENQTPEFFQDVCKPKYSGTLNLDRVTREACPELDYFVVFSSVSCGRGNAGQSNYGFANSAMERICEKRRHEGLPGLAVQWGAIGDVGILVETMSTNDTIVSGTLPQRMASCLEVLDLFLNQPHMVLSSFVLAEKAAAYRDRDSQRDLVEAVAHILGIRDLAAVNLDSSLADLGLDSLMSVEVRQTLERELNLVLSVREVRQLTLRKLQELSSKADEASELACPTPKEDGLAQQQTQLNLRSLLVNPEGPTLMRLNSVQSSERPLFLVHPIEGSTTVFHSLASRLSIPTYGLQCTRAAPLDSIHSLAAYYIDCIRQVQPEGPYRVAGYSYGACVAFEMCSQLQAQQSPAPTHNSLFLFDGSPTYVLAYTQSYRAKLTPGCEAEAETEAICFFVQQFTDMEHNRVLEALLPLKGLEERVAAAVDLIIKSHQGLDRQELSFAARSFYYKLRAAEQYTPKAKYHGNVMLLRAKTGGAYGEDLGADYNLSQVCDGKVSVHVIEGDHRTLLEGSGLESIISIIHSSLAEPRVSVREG
T1 sequence (Q79MP6 whole entry): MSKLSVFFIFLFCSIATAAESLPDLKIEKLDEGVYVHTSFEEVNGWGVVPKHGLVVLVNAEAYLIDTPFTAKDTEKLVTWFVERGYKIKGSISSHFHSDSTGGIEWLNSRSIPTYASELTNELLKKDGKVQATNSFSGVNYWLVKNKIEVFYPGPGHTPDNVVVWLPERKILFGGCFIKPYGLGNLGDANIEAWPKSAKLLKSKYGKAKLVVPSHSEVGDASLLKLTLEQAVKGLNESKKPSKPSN
Photoreceptor-specific nuclear receptor, sequence (Q9Y5X4 whole entry, the tested form may be a part): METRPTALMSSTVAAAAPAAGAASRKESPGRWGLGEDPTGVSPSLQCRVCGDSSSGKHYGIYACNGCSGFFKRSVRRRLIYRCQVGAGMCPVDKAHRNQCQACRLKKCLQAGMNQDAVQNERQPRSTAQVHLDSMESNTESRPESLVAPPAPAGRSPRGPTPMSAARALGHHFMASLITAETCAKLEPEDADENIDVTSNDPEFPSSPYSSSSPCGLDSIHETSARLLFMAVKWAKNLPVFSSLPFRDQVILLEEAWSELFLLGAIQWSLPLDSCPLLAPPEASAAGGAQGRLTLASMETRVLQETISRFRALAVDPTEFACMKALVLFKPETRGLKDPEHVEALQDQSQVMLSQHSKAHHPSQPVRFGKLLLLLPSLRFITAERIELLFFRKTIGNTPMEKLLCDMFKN
Beta-lactamase (Salmonella choleraesuis (strain SC-B67), UniProt Q5J463), sequence (Q5J463 whole entry): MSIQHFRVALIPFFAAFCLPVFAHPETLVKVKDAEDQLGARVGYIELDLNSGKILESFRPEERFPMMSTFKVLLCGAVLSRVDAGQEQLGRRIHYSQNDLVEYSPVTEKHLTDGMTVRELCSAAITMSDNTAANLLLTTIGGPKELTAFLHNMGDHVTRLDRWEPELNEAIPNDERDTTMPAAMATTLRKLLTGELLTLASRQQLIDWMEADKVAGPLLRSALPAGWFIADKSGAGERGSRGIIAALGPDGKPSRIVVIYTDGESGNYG
Large T antigen, sequence (P03070 whole entry): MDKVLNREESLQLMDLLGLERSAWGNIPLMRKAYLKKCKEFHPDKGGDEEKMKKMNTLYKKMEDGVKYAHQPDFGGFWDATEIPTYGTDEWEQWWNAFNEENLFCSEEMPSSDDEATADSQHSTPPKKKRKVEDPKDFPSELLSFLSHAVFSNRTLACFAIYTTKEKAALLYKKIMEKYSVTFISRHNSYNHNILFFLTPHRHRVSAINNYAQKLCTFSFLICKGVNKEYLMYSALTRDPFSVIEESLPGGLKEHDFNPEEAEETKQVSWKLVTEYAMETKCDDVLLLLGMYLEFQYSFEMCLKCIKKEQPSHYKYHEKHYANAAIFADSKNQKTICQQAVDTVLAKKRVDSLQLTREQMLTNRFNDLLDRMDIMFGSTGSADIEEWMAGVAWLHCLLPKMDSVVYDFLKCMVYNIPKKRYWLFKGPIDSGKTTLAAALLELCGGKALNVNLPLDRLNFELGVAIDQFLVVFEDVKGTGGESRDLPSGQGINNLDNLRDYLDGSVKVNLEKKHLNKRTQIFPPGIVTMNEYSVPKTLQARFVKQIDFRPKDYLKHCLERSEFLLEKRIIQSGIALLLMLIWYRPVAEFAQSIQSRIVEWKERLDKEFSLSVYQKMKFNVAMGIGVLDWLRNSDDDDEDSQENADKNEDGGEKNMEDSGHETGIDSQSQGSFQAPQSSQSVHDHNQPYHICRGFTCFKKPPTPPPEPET
Induced myeloid leukemia cell differentiation protein Mcl-1, sequence (Q07820 whole entry): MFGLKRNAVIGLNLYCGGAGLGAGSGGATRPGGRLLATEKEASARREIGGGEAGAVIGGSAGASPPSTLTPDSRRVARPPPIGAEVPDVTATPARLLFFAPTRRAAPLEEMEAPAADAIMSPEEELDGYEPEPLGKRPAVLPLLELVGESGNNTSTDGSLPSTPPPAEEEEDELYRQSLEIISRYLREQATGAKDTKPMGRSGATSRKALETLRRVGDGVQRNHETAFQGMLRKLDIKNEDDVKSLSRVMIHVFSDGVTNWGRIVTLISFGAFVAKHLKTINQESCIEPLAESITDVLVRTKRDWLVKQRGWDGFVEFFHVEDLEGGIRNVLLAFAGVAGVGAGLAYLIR

Cc1n[nH]c(C)c1CCCCOc1ccc([N+](=O)[O-])cc1
IC50 (Beta-lactamase [1]): > 59.6 µM (inactive)
IC50 (Beta-lactamase [2]): > 59.6 µM (inactive)
IC50 (Beta-lactamase [3]): > 59.6 µM (inactive)

COc1ccc(-c2csc(NC(=S)NC(=O)c3cccs3)n2)cc1OC
EC50 (Streptococcus): 74.3 µM (active)
IC50 [4]: > 66.6 µM (inactive)
EC50 [5]: 23.4 µM (active)
IC50 [6]: 7.27 µM (active)
EC50 (Streptokinase A): > 150 µM (not active)

CCOC(=O)c1c(C)n(-c2ccc(C)cc2)c2ccc(OCC(O)CNCC3CCCO3)cc12 (configuration not stated)
IC50 [7]: > 20 µM (inactive)
CC50 [8]: 39.7 µM (active)
IC50 [9]: 131 µM (active)
EC50 [10]: > 60 µM (not active)
EC50 [11]: 1.51 µM (active)
CC50 [12]: 13.2 µM (active)

CC(C)OCCCNc1nc(-c2ccccc2)nc2ccccc12
IC50 [13]: 11.7 µM (active)
IC50 [14]: 22.9 µM (inactive)

Nc1nc(N)c(Cc2ccc(Cl)cc2Cl)c(N)n1
IC50 [13]: 7.44 µM (active)
IC50 [14]: 11.9 µM (active)

CCCCN1C(=O)/C(=C/C=C/c2ccco2)C(=O)NC1=S
IC50 (Large T antigen): 7.95 µM (active)
AC50 [15]: 4.72 µM (active)
IC50 [16]: 3.39 µM (active)
IC50 [17]: 2.18 µM (active)

CC(C)Oc1ccc(Cc2nnc(S)n2Cc2ccccc2)cc1Cl
IC50 (Fatty acid synthase [18]): 6.09 µM (active)
IC50 (Fatty acid synthase [19]): 6.4 µM (active)

Cc1c(C)c2ccc(OCC(=O)N3CCC[C@@H]3C(=O)O)c(C)c2oc1=O
IC50 (Beta-lactamase [1]): > 59.6 µM (inactive)
IC50 (Beta-lactamase [2]): > 59.6 µM (inactive)
IC50 (Beta-lactamase [3]): > 59.6 µM (inactive)

CC(=O)Nc1cc(O)c2cccnc2n1
IC50 [13]: 25.9 µM (inactive)
IC50 [14]: 38.7 µM (inactive)

CC(C)C[C@@H](CNCC(=O)[C@H](Cc1ccccc1)NC(=O)c1nc[nH]c1C(=O)N[C@H](CN)CC(C)C)NC(=O)c1[nH]cnc1C(=O)N[C@@H](CC(=O)O)C(=O)O
IC50 [4]: > 66.6 µM (inactive)
IC50 [6]: 20.4 µM (inactive)

C#Cc1cccc(Nc2nc(NCc3ccccc3)nc3ccsc23)c1
IC50 [20]: 7.02 µM (active)

NS(=O)(=O)c1ccc(CCNc2nn3c(-c4cccc(OC(F)(F)F)c4)cnc3s2)cc1
AC50 [21]: 52.5 µM (active)
IC50 [20]: 6.96 µM (active)
AC50 [22]: 0.852 µM (active)
AC50 [23]: 3.93 µM (active)

O=[N+]([O-])c1ccc(S(=O)(=O)N/N=C/c2ccc3c(c2)OCO3)cc1
IC50 (Fatty acid synthase [18]): 5.36 µM (active)
IC50 (Fatty acid synthase [19]): 5.55 µM (active)

Cc1cc(=O)n2nc(-c3ccc(C(C)(C)C)cc3)cc2[nH]1
IC50 (Fatty acid synthase [18]): 15 µM (active)
EC50 [10]: > 60 µM (not active)
EC50 [11]: 0.646 µM (active)
IC50 (Fatty acid synthase [19]): 9.51 µM (active)
